Converted amounts (≈) assume the structure as drawn.
Key:
[1] = test system: Bacillus amyloliquefaciens; test: Antibacterial activity against Bacillus amyloliquefaciens at 25 ug/ml after 24 hrs by plate colony counting method relative to control; format: functional
Staphylococcus aureus [2] = test: Antibacterial activity against Staphylococcus aureus at 25 ug/ml after 24 hrs by plate colony counting method relative to control; format: functional
Bacillus subtilis [3] = test: Antibacterial activity against Bacillus subtilis at 25 ug/ml after 24 hrs by plate colony counting method relative to control; format: functional
[4] = test system: Bacillus amyloliquefaciens; test: Antibacterial activity against Bacillus amyloliquefaciens after 24 hrs by plate colony counting method; format: functional
Staphylococcus aureus [5] = test: Antibacterial activity against Staphylococcus aureus after 24 hrs by plate colony counting method; format: functional
Bacillus subtilis [6] = test: Antibacterial activity against Bacillus subtilis after 24 hrs by plate colony counting method; format: functional
Escherichia coli [7] = test: Inhibition of Escherichia coli BL21.19 SecA at 40 ug/ml after 30 mins by malachite green dye-based assay relative to control
[8] = Inhibition of Escherichia coli BL21.19 SecA after 30 mins by malachite green dye-based assay
Escherichia coli [9] = test: Inhibition of Escherichia coli BL21.19 SecA at 20 ug/ml after 30 mins by malachite green dye-based assay relative to control

SMILES: N#Cc1c(-c2ccccc2)nc(SCc2ccc(C(=O)NC(=S)Nc3ccccc3)cc2)[nH]c1=O
- inhibition at 25 µg/mL [1]: 70%
- inhibition at 25 µg/mL (Staphylococcus aureus [2]): 67%
- inhibition at 25 µg/mL (Bacillus subtilis [3]): 63%

SMILES: N#Cc1c(-c2ccc(-c3ccccc3)cc2)nc(SCc2ccc(C(=O)NC(=S)Nc3ccccc3)cc2)[nH]c1=O
- inhibition at 25 µg/mL [1]: 62%
- inhibition at 25 µg/mL (Staphylococcus aureus [2]): 83%
- inhibition at 25 µg/mL (Bacillus subtilis [3]): 72%
- MIC [4]: 50 µg/mL (≈ 87.2 µM)
- MIC (Staphylococcus aureus [5]): 50 µg/mL (≈ 87.2 µM)
- MIC (Bacillus subtilis [6]): 50 µg/mL (≈ 87.2 µM)

SMILES: Cc1ccccc1NC(=S)NC(=O)c1ccc(CSc2nc(-c3ccc(Cl)cc3)c(C#N)c(=O)[nH]2)cc1
- inhibition at 25 µg/mL [1]: 61%
- inhibition at 25 µg/mL (Staphylococcus aureus [2]): 58%
- inhibition at 25 µg/mL (Bacillus subtilis [3]): 78%

SMILES: Cc1ccccc1NC(=S)NC(=O)c1ccc(CSc2nc(-c3ccc(Cl)cc3Cl)c(C#N)c(=O)[nH]2)cc1
- inhibition at 25 µg/mL [1]: 55%
- inhibition at 25 µg/mL (Staphylococcus aureus [2]): 66%
- inhibition at 25 µg/mL (Bacillus subtilis [3]): 54%

SMILES: N#Cc1c(-c2ccc(Cl)cc2)nc(SCc2ccc(C(=O)NC(=S)Nc3ccc(Cl)cc3)cc2)[nH]c1=O
- inhibition at 25 µg/mL [1]: 61%
- inhibition at 25 µg/mL (Staphylococcus aureus [2]): 62%
- inhibition at 25 µg/mL (Bacillus subtilis [3]): 91%

SMILES: N#Cc1c(-c2ccc(Cl)cc2Cl)nc(SCc2ccc(C(=O)NC(=S)Nc3c(Cl)cccc3Cl)cc2)[nH]c1=O
- inhibition at 25 µg/mL [1]: 72%
- inhibition at 25 µg/mL (Staphylococcus aureus [2]): 68%
- inhibition at 25 µg/mL (Bacillus subtilis [3]): 69%
- MIC [4]: 50 µg/mL (≈ 78.7 µM)
- MIC (Staphylococcus aureus [5]): 50 µg/mL (≈ 78.7 µM)
- MIC (Bacillus subtilis [6]): 50 µg/mL (≈ 78.7 µM)

SMILES: N#Cc1c(-c2ccccc2)nc(SCc2ccc(C(=O)NC(=S)Nc3c(Cl)cccc3Cl)cc2)[nH]c1=O
- inhibition at 25 µg/mL [1]: 81%
- inhibition at 25 µg/mL (Staphylococcus aureus [2]): 70%
- inhibition at 25 µg/mL (Bacillus subtilis [3]): 84%

SMILES: N#Cc1c(-c2c(Cl)cccc2Cl)nc(SCc2ccc(C(=O)NC(=S)Nc3c(Cl)cccc3Cl)cc2)[nH]c1=O
- inhibition at 25 µg/mL [1]: 53%
- inhibition at 25 µg/mL (Staphylococcus aureus [2]): 79%
- inhibition at 25 µg/mL (Bacillus subtilis [3]): 73%
- MIC [4]: 50 µg/mL (≈ 78.7 µM)
- MIC (Staphylococcus aureus [5]): 50 µg/mL (≈ 78.7 µM)
- MIC (Bacillus subtilis [6]): 50 µg/mL (≈ 78.7 µM)

SMILES: N#Cc1c(-c2ccc(-c3ccccc3)cc2)nc(SCc2ccc(C(=O)NC(=S)Nc3c(Cl)cccc3Cl)cc2)[nH]c1=O
- inhibition at 25 µg/mL [1]: 71%
- inhibition at 25 µg/mL (Staphylococcus aureus [2]): 80%
- inhibition at 25 µg/mL (Bacillus subtilis [3]): 69%
- MIC [4]: 50 µg/mL (≈ 77.8 µM)
- MIC (Staphylococcus aureus [5]): 50 µg/mL (≈ 77.8 µM)
- MIC (Bacillus subtilis [6]): 50 µg/mL (≈ 77.8 µM)

SMILES: N#Cc1c(-c2ccc(Cl)cc2)nc(SCc2ccc(C(=O)NC(=S)Nc3c(Cl)cccc3Cl)cc2)[nH]c1=O
- inhibition at 25 µg/mL [1]: 81%
- inhibition at 25 µg/mL (Staphylococcus aureus [2]): 81%
- inhibition at 25 µg/mL (Bacillus subtilis [3]): 80%
- MIC [4]: 25 µg/mL (≈ 41.6 µM)
- MIC (Staphylococcus aureus [5]): 50 µg/mL (≈ 83.2 µM)
- MIC (Bacillus subtilis [6]): 50 µg/mL (≈ 83.2 µM)
- inhibition (Escherichia coli [7]): 50%
- IC50 [8]: 38.8 µg/mL (≈ 64.6 µM)

SMILES: N#Cc1c(-c2ccc(Cl)cc2)nc(SCc2ccc(C(=O)NC(=S)Nc3ccccc3)cc2)[nH]c1=O
- inhibition at 25 µg/mL [1]: 70%
- inhibition at 25 µg/mL (Staphylococcus aureus [2]): 67%
- inhibition at 25 µg/mL (Bacillus subtilis [3]): 63%

SMILES: N#Cc1c(-c2ccc(-c3ccccc3)cc2)nc(SCc2ccc(C(=O)NC(=S)Nc3ccc(Cl)cc3)cc2)[nH]c1=O
- inhibition at 25 µg/mL [1]: 75%
- inhibition at 25 µg/mL (Staphylococcus aureus [2]): 76%
- inhibition at 25 µg/mL (Bacillus subtilis [3]): 56%

SMILES: CCn1cc(C(=O)O)c(=O)c2cc(F)c(N3CCNCC3)cc21 [NORFLOXACIN]
- inhibition at 25 µg/mL [1]: 84%
- inhibition at 25 µg/mL (Staphylococcus aureus [2]): 78%
- inhibition at 25 µg/mL (Bacillus subtilis [3]): 89%
- MIC [4]: 25 µg/mL (≈ 78.3 µM)
- MIC (Staphylococcus aureus [5]): 25 µg/mL (≈ 78.3 µM)
- MIC (Bacillus subtilis [6]): 25 µg/mL (≈ 78.3 µM)

SMILES: N#Cc1c(-c2ccccc2)nc(SCc2ccc(C(=O)NC(=S)Nc3ccc(Cl)cc3)cc2)[nH]c1=O
- inhibition at 25 µg/mL [1]: 79%
- inhibition at 25 µg/mL (Staphylococcus aureus [2]): 64%
- inhibition at 25 µg/mL (Bacillus subtilis [3]): 71%
- inhibition (Escherichia coli [7]): 50%
- IC50 [8]: 39.4 µg/mL (≈ 74.1 µM)

SMILES: N#Cc1c(-c2ccccc2Cl)nc(SCc2ccc(C(=O)NC(=S)Nc3c(Cl)cccc3Cl)cc2)[nH]c1=O
- inhibition at 25 µg/mL [1]: 89%
- inhibition at 25 µg/mL (Staphylococcus aureus [2]): 79%
- inhibition at 25 µg/mL (Bacillus subtilis [3]): 92%
- MIC [4]: 25 µg/mL (≈ 41.6 µM)
- MIC (Staphylococcus aureus [5]): 50 µg/mL (≈ 83.2 µM)
- MIC (Bacillus subtilis [6]): 50 µg/mL (≈ 83.2 µM)
- inhibition (Escherichia coli [9]): 50%
- IC50 [8]: 16 µg/mL (≈ 26.6 µM)

SMILES: N#Cc1c(-c2c(Cl)cccc2Cl)nc(SCc2ccc(C(=O)NC(=S)Nc3ccccc3)cc2)[nH]c1=O
- inhibition at 25 µg/mL [1]: 71%
- inhibition at 25 µg/mL (Staphylococcus aureus [2]): 71%
- inhibition at 25 µg/mL (Bacillus subtilis [3]): 55%

SMILES: Cc1ccccc1NC(=S)NC(=O)c1ccc(CSc2nc(-c3c(Cl)cccc3Cl)c(C#N)c(=O)[nH]2)cc1
- inhibition at 25 µg/mL [1]: 50%
- inhibition at 25 µg/mL (Staphylococcus aureus [2]): 64%
- inhibition at 25 µg/mL (Bacillus subtilis [3]): 62%

SMILES: N#Cc1c(-c2ccccc2Cl)nc(SCc2ccc(C(=O)NC(=S)Nc3ccccc3)cc2)[nH]c1=O
- inhibition at 25 µg/mL [1]: 67%
- inhibition at 25 µg/mL (Staphylococcus aureus [2]): 80%
- inhibition at 25 µg/mL (Bacillus subtilis [3]): 87%
- MIC [4]: 25 µg/mL (≈ 47 µM)
- MIC (Staphylococcus aureus [5]): 50 µg/mL (≈ 94 µM)
- MIC (Bacillus subtilis [6]): 25 µg/mL (≈ 47 µM)
- inhibition (Escherichia coli [9]): 50%
- IC50 [8]: 17.9 µg/mL (≈ 33.6 µM)

SMILES: N#Cc1c(-c2ccc(Cl)cc2Cl)nc(SCc2ccc(C(=O)NC(=S)Nc3ccccc3)cc2)[nH]c1=O
- inhibition at 25 µg/mL [1]: 56%
- inhibition at 25 µg/mL (Staphylococcus aureus [2]): 79%
- inhibition at 25 µg/mL (Bacillus subtilis [3]): 66%

SMILES: Cc1ccccc1NC(=S)NC(=O)c1ccc(CSc2nc(-c3ccc(-c4ccccc4)cc3)c(C#N)c(=O)[nH]2)cc1
- inhibition at 25 µg/mL [1]: 73%
- inhibition at 25 µg/mL (Staphylococcus aureus [2]): 67%
- inhibition at 25 µg/mL (Bacillus subtilis [3]): 78%

SMILES: N#Cc1c(-c2ccc(Cl)cc2Cl)nc(SCc2ccc(C(=O)NC(=S)Nc3ccc(Cl)cc3)cc2)[nH]c1=O
- inhibition at 25 µg/mL [1]: 74%
- inhibition at 25 µg/mL (Staphylococcus aureus [2]): 69%
- inhibition at 25 µg/mL (Bacillus subtilis [3]): 74%

SMILES: N#Cc1c(-c2ccc(-c3ccccc3)cc2)nc(SCc2ccc(CSc3nc(-c4ccc(-c5ccccc5)cc4)c(C#N)c(=O)[nH]3)cc2)[nH]c1=O
- inhibition at 25 µg/mL [1]: 87%
- inhibition at 25 µg/mL (Staphylococcus aureus [2]): 79%
- inhibition at 25 µg/mL (Bacillus subtilis [3]): 44%
- MIC [4]: 12.5 µg/mL (≈ 17.5 µM)
- MIC (Staphylococcus aureus [5]): 25 µg/mL (≈ 35.1 µM)
- MIC (Bacillus subtilis [6]): 50 µg/mL (≈ 70.1 µM)
- IC50 [8]: 20.8 µg/mL (≈ 29.2 µM)

SMILES: N#Cc1c(-c2ccccc2Cl)nc(SCc2ccc(C(=O)NC(=S)Nc3ccc(Cl)cc3)cc2)[nH]c1=O
- inhibition at 25 µg/mL [1]: 63%
- inhibition at 25 µg/mL (Staphylococcus aureus [2]): 68%
- inhibition at 25 µg/mL (Bacillus subtilis [3]): 68%

SMILES: N#Cc1c(-c2c(Cl)cccc2Cl)nc(SCc2ccc(C(=O)NC(=S)Nc3ccc(Cl)cc3)cc2)[nH]c1=O
- inhibition at 25 µg/mL [1]: 49%
- inhibition at 25 µg/mL (Staphylococcus aureus [2]): 68%
- inhibition at 25 µg/mL (Bacillus subtilis [3]): 63%

SMILES: Cc1ccccc1NC(=S)NC(=O)c1ccc(CSc2nc(-c3ccccc3)c(C#N)c(=O)[nH]2)cc1
- inhibition at 25 µg/mL [1]: 69%
- inhibition at 25 µg/mL (Staphylococcus aureus [2]): 63%
- inhibition at 25 µg/mL (Bacillus subtilis [3]): 78%

SMILES: Cc1ccccc1NC(=S)NC(=O)c1ccc(CSc2nc(-c3ccccc3Cl)c(C#N)c(=O)[nH]2)cc1
- inhibition at 25 µg/mL [1]: 78%
- inhibition at 25 µg/mL (Staphylococcus aureus [2]): 71%
- inhibition at 25 µg/mL (Bacillus subtilis [3]): 82%

— ChEMBL document CHEMBL4038262, “Design, synthesis and antibacterial activities of thiouracil derivatives containing acyl thiourea as SecA inhibitors” (Bioorg Med Chem Lett, 2017)
